Key:
Assay in all cases: relative viability (nuclei count vs DMSO), 5 days (fraction); higher = more cells survive
LCLC-97TM1 = tested on: LCLC-97TM1
In short: (§1)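 A single step with final 0.05% Triton X-100, 1% formaldehyde and 1 ug/ml Hoechst fixed the cells and stained nuclei 5 days after treatment. Lung cancer cell lines in 1536-well plates had been treated by pin tool the day after seeding with one drug alone or a fixed anchor-drug dose plus five library-drug doses (not always all listed) in √10 steps, and nuclei were counted on 4× images. Relative viability is the ratio of nuclei in treated wells to nuclei in vehicle wells, taken as the median of duplicate plates.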

NCI-H1915 = tested on: NCI-H1915
In short: as §1

SW 1573 = tested on: SW 1573
In short: as §1

NCI-H1993 = tested on: NCI-H1993
In short: as §1

SK-LU-1 = tested on: SK-LU-1
In short: as §1

HOP-62 = tested on: HOP-62
In short: as §1

NCI-H2347 = tested on: NCI-H2347
In short: as §1

LXF-289 = tested on: LXF-289
In short: as §1

PC-14 = tested on: PC-14
In short: as §1

NCI-H2009 = tested on: NCI-H2009
In short: as §1

EMC-BAC-2 = tested on: EMC-BAC-2
In short: as §1

NCI-H661 = tested on: NCI-H661
In short: as §1

NCI-H322M = tested on: NCI-H322M
In short: as §1

NCI-H2085 = tested on: NCI-H2085
In short: as §1

H3255 = tested on: H3255
In short: as §1

NCI-H2126 = tested on: NCI-H2126
In short: as §1

NCI-H727 = tested on: NCI-H727
In short: as §1

NCI-H1563 = tested on: NCI-H1563
In short: as §1

NCI-H647 = tested on: NCI-H647
In short: as §1

BEN = tested on: BEN
In short: as §1

NCI-H2023 = tested on: NCI-H2023
In short: as §1

NCI-H358 = tested on: NCI-H358
In short: as §1

C[C@@H]1CN(CC(=O)Nc2ccc3c(c2)Cc2cccc(-c4cc(=O)cc(N5CCOCC5)o4)c2S3)C[C@H](C)O1 + C[C@]1(O)C[C@@H](c2nc(-c3ccc4ccc(-c5ccccc5)nc4c3)c3c(N)nccn32)C1 [Linsitinib] (partner 1 µM)
relative viability (LCLC-97TM1; first compound 0.1265 µM): 0.157
relative viability (LCLC-97TM1; first compound 0.4 µM): 0.204
relative viability (LCLC-97TM1; first compound 4 µM): 0.204
relative viability (NCI-H1915; first compound 0.04 µM): 1.05
relative viability (NCI-H1915; first compound 0.1265 µM): 1.07
relative viability (NCI-H1915; first compound 0.4 µM): 1.13
relative viability (NCI-H1915; first compound 4 µM): 1.12
relative viability (SW 1573; first compound 0.04 µM): 0.814
relative viability (SW 1573; first compound 0.1265 µM): 0.914
relative viability (SW 1573; first compound 0.4 µM): 0.646
relative viability (SW 1573; first compound 4 µM): 0.771
relative viability (NCI-H1993; first compound 0.04 µM): 0.716
relative viability (NCI-H1993; first compound 0.1265 µM): 0.733
relative viability (NCI-H1993; first compound 0.4 µM): 0.848
relative viability (NCI-H1993; first compound 4 µM): 0.805
relative viability (SK-LU-1; first compound 0.04 µM): 1.18
relative viability (SK-LU-1; first compound 0.1265 µM): 1.19
relative viability (SK-LU-1; first compound 0.4 µM): 1.27
relative viability (SK-LU-1; first compound 4 µM): 0.835
relative viability (HOP-62; first compound 0.04 µM): 0.93
relative viability (HOP-62; first compound 0.1265 µM): 0.945
relative viability (HOP-62; first compound 0.4 µM): 0.897
relative viability (HOP-62; first compound 4 µM): 0.947
relative viability (NCI-H2347; first compound 0.04 µM): 0.883
relative viability (NCI-H2347; first compound 0.1265 µM): 1.05
relative viability (NCI-H2347; first compound 0.4 µM): 1.01
relative viability (NCI-H2347; first compound 4 µM): 1.02
relative viability (LXF-289; first compound 0.04 µM): 0.981
relative viability (LXF-289; first compound 0.1265 µM): 0.983
relative viability (LXF-289; first compound 0.4 µM): 1.02
relative viability (LXF-289; first compound 4 µM): 0.933
relative viability (PC-14; first compound 0.04 µM): 0.963
relative viability (PC-14; first compound 0.1265 µM): 0.902
relative viability (PC-14; first compound 0.4 µM): 0.937
relative viability (PC-14; first compound 4 µM): 0.754
relative viability (NCI-H2009; first compound 0.04 µM): 1.24
relative viability (NCI-H2009; first compound 0.1265 µM): 1.13
relative viability (NCI-H2009; first compound 0.4 µM): 1.1
relative viability (NCI-H2009; first compound 4 µM): 0.961
relative viability (EMC-BAC-2; first compound 0.04 µM): 0.805
relative viability (EMC-BAC-2; first compound 0.1265 µM): 0.765
relative viability (EMC-BAC-2; first compound 0.4 µM): 0.757
relative viability (EMC-BAC-2; first compound 4 µM): 0.77
relative viability (NCI-H661; first compound 0.1265 µM): 0.556
relative viability (NCI-H661; first compound 0.4 µM): 0.599
relative viability (NCI-H661; first compound 4 µM): 0.506
relative viability (NCI-H322M; first compound 0.04 µM): 1.01
relative viability (NCI-H322M; first compound 0.1265 µM): 0.847
relative viability (NCI-H322M; first compound 0.4 µM): 0.857
relative viability (NCI-H322M; first compound 4 µM): 0.79
relative viability (NCI-H2085; first compound 0.04 µM): 0.992
relative viability (NCI-H2085; first compound 0.1265 µM): 0.803
relative viability (NCI-H2085; first compound 0.4 µM): 0.827
relative viability (NCI-H2085; first compound 4 µM): 0.724
relative viability (H3255; first compound 0.04 µM): 0.934
relative viability (H3255; first compound 0.1265 µM): 1.04
relative viability (H3255; first compound 0.4 µM): 0.818
relative viability (H3255; first compound 4 µM): 0.879
relative viability (NCI-H2126; first compound 0.04 µM): 0.765
relative viability (NCI-H2126; first compound 0.1265 µM): 0.762
relative viability (NCI-H2126; first compound 0.4 µM): 0.707
relative viability (NCI-H2126; first compound 4 µM): 0.722
relative viability (NCI-H727; first compound 0.04 µM): 0.38
relative viability (NCI-H727; first compound 0.1265 µM): 0.348
relative viability (NCI-H727; first compound 0.4 µM): 0.332
relative viability (NCI-H727; first compound 4 µM): 0.3
relative viability (NCI-H1563; first compound 0.04 µM): 1.17
relative viability (NCI-H1563; first compound 0.1265 µM): 1.28
relative viability (NCI-H1563; first compound 0.4 µM): 0.988
relative viability (NCI-H1563; first compound 4 µM): 1.1
relative viability (NCI-H647; first compound 0.04 µM): 1.28
relative viability (NCI-H647; first compound 0.1265 µM): 1.12
relative viability (NCI-H647; first compound 0.4 µM): 0.926
relative viability (NCI-H647; first compound 4 µM): 0.76
relative viability (BEN; first compound 0.04 µM): 0.782
relative viability (BEN; first compound 0.1265 µM): 0.832
relative viability (BEN; first compound 0.4 µM): 1.1
relative viability (BEN; first compound 4 µM): 0.86
relative viability (NCI-H2023; first compound 0.04 µM): 0.751
relative viability (NCI-H2023; first compound 0.1265 µM): 0.669
relative viability (NCI-H2023; first compound 0.4 µM): 0.433
relative viability (NCI-H2023; first compound 4 µM): 0.496
relative viability (NCI-H358; first compound 0.04 µM): 0.854
relative viability (NCI-H358; first compound 0.1265 µM): 0.733
relative viability (NCI-H358; first compound 0.4 µM): 0.703
relative viability (NCI-H358; first compound 4 µM): 0.487

— the supplement of paper PMC10307832
